Test results published in patent publication US12187742B2 (XRAD Therapeutics, Inc., priority 2018, dated 2025).
Where a name gives a salt, the structure may show the parent alone.

These molecules were tested against ATM (Homo sapiens (Human), UniProt Q13315) (assay: ATM in Cell Western Assay (pKAP1 in etoposide-treated MCF-7 cells)). Details: pKAP1 in etoposide-treated MCF-7 cells.
Chain of ATM (Q13315 whole entry): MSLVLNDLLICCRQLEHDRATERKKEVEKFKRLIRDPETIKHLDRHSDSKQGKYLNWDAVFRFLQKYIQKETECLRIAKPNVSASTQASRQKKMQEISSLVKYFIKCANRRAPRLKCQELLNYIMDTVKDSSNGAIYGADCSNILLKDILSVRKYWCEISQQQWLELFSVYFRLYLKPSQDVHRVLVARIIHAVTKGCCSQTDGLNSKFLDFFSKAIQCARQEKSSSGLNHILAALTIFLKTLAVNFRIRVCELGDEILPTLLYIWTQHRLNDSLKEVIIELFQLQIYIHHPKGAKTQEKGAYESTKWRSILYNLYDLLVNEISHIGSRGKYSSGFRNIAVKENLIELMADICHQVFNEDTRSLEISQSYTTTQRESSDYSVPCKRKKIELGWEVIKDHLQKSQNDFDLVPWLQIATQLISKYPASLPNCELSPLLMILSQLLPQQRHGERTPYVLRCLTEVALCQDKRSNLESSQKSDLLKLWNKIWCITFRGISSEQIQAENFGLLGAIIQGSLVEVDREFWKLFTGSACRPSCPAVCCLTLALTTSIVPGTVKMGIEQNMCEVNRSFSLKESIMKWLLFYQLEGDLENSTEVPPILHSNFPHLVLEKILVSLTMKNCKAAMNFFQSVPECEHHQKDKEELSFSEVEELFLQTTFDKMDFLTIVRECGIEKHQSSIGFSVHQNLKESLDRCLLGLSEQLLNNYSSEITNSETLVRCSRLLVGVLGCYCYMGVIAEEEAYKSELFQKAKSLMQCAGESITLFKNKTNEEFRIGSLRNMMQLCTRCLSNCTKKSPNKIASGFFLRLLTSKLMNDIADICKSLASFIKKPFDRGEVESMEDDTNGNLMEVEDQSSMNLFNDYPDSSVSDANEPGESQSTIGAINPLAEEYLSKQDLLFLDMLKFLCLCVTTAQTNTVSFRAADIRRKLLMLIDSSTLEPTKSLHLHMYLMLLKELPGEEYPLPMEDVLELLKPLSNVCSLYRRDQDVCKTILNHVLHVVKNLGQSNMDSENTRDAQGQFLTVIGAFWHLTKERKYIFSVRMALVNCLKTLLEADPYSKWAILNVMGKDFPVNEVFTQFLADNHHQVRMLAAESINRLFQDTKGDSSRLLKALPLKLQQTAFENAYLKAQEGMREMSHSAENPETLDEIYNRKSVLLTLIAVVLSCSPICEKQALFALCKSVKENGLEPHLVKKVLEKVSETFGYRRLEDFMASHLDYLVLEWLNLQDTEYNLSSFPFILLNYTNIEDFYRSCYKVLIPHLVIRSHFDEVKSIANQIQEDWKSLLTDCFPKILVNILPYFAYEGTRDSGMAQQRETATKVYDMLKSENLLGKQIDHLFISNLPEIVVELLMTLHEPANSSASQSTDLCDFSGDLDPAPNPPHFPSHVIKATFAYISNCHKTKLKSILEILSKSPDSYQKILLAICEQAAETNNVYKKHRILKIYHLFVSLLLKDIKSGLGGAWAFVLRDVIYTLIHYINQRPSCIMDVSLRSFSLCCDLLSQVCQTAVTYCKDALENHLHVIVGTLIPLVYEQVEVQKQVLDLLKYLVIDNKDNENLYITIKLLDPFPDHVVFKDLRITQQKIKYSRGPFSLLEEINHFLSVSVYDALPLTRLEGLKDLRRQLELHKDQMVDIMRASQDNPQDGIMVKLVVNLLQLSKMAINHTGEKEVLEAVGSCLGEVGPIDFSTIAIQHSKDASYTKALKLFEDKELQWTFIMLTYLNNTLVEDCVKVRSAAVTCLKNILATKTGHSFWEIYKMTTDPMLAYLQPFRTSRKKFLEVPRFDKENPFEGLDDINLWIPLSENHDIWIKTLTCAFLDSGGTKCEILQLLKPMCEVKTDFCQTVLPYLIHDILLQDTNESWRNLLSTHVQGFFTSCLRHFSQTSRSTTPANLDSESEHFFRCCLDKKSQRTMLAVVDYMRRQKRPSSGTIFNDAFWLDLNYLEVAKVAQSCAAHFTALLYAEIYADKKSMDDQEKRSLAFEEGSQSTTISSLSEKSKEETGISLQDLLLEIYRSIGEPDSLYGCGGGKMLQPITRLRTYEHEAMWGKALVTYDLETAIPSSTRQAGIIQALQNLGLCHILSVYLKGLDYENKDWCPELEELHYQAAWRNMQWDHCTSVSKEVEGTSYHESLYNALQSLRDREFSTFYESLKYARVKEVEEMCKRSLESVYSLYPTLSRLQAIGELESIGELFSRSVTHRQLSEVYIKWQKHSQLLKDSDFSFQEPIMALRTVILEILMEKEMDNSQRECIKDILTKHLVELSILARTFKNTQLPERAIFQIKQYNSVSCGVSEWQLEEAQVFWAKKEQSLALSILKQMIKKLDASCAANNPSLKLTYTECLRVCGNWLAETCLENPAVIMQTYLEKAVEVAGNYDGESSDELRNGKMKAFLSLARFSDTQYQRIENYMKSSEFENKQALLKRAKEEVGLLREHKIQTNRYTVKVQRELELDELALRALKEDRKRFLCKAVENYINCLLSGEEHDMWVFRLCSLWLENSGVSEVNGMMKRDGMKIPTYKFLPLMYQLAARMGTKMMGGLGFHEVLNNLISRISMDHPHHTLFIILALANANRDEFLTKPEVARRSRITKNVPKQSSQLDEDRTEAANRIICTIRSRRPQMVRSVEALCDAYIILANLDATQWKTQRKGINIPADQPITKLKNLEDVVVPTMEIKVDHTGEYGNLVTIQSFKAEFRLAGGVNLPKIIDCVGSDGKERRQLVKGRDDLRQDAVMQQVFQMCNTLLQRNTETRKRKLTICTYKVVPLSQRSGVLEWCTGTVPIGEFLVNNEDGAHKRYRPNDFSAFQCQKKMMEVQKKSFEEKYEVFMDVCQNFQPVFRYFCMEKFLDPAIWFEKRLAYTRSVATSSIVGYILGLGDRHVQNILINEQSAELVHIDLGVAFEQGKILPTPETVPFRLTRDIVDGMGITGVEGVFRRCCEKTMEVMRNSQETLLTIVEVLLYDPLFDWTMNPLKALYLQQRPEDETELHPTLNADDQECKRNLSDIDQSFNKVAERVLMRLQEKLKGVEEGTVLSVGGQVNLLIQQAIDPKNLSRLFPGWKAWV
Format: cell-based
Method in brief: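 Cells received compounds in a 10-dose, 3-fold series from a 1 μM final top concentration, then 100 μM etoposide, for 1 hr at 37° C. They were then fixed with paraformaldehyde and permeabilized with 0.1% Triton X-100. After immunostaining, plates were scanned on an infrared imager.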
In the case of CN1C(=O)C2(CCC2)c2c1cnc1cc(F)c(-c3cnc(N4CC(N(C)C)C4)c(NS(=O)(=O)C(F)F)c3)cc21 [Example 341, N-(2-(3-(Dimethylamino)azetidin-1-yl)-5-(7′-fluoro-3′-methyl-2′-oxo-2′,3′-dihydrospiro[cyclobutane-1,1′-pyrrolo[2,3-c]quinolin]-8′-yl)pyridin-3-yl)-1,1′-difluoromethane-sulfonamide formate], the IC50 is reported as greater than 0.1 µM.
Molecule CN1C(=O)C2(CCC2)c2c1cnc1cc(F)c(-c3cnc(N4CC(N(C)C)C4)c(NS(=O)(=O)CC#N)c3)cc21 [Example 342, 1-Cyano-N-(2-(3-(dimethylamino)azetidin-1-yl)-5-(7′-fluoro-3′-methyl-2′-oxo-2′,3′-dihydrospiro [cyclobutane-1,1′-pyrrolo [2,3-c]quinolin]-8′-yl)pyridin-3-yl)methanesulfonamide hydrochloride] has an IC50 greater than 0.1 µM.
CN1C(=O)C2(CCC2)c2c1cnc1cc(F)c(-c3cnc(N4CC(CN5CCOCC5)C4)c(NS(C)(=O)=O)c3)cc21 [Example 344, N-(5-(7′-Fluoro-3′-methyl-2′-oxo-2′,3′-dihydrospiro[cyclobutane-1,1′-pyrrolo[2,3-c]quinolin]-8′-yl)-2-(3-(morpholinomethyl)azetidin-1-yl)pyridin-3-yl)methanesulfonamideformate] showed an IC50 greater than 0.1 µM.
CN1CC2(C1)CN(c1ncc(-c3ccc4ncc5c(c4c3)C3(CCC3)C(=O)N5C)cc1NS(C)(=O)=O)C2 [Example 345, N-(5-(3′-Methyl-2′-oxo-2′,3′-dihydrospiro[cyclobutane-1,1′-pyrrolo[2,3-c]quinolin]-8′-yl)-2-(6-methyl-2,6-diazaspiro[3.3]heptan-2-yl)pyridin-3-yl)methanesulfonamide formate] was tested, and the IC50 was 0.001 to 0.1 µM.
For CN1C(=O)C2(CCC2)c2c1cnc1ccc(-c3cnc(N4CC5(CNC5)C4)c(NS(C)(=O)=O)c3)cc21 [Example 346, N-(5-(3′-Methyl-2′-oxo-2′,3′-dihydrospiro[cyclobutane-1,1 pyrrole[2,3-c]quinolin]-8′-yl)-2-(2,6-diazaspiro[3.3]heptan-2-yl)pyridin-3-yl) methanesulfonamide formate], the IC50 was greater than 0.1 µM.
With CN1C(=O)C2(CCC2)c2c1cnc1ccc(-c3cnc(N4CC5(CN(C(=O)OC(C)(C)C)C5)C4)c(NS(C)(=O)=O)c3)cc21 [Example 347, tert-Butyl 6-(5-(3′-methyl-2′-oxo-2′,3′-dihydrospiro [cyclobutane-1,1′-pyrrolo[2,3-c]quinolin]-8′-yl)-3-(methylsulfonamido)pyridin-2-yl)-2,6-diazaspiro[3.3] heptane-2-carboxylate] the IC50 was greater than 0.1 µM.
Molecule CN1C(=O)C2(CCC2)c2c1cnc1ccc(-c3cnc(N4CC5CN(C(=O)OC(C)(C)C)CC5C4)c(NS(C)(=O)=O)c3)cc21 (stereo not drawn) [Example 348, tert-Butyl 5-(5-(3′-methyl-2′-oxo-2′,3′-dihydrospiro [cyclobutane-1,1′-pyrrolo[2,3-c]quinolin]-8′-yl)-3-(methylsulfonamido)pyridin-2-yl) hexahydropyrrolo [3,4-c] pyrrole-2(1H)-carboxylate] has an IC50 greater than 0.1 µM.
Molecule CN1C(=O)C2(CCC2)c2c1cnc1ccc(-c3cnc(N4CC5CNCC5C4)c(NS(C)(=O)=O)c3)cc21 (stereo not drawn) [Example 349, N-(2-(Hexahydropyrrolo[3,4-c]pyrrol-2(1H)-yl)-5-(3′-methyl-2′-oxo-2′,3′-dihydrospiro [cyclobutane-1,1′-pyrrolo[2,3-c]quinolin]-8′-yl)pyridin-3-yl) methanesulfonamide formate] has an IC50 of 0.001 to 0.1 µM.
CN1C(=O)C2(CCC2)c2c1cnc1ccc(-c3cnc(N4CCC(C)(N5CCCCC5)CC4)c(NS(C)(=O)=O)c3)cc21 [Example 354, N-(5-(3′-Methyl-2′-oxo-2′,3′-dihydrospiro[cyclobutane-1,1′-pyrrolo[2,3-c]quinolin]-8′-yl)-2-(4′-methyl-[l,4′-bipiperidin]-1′-yl)pyridin-3-yl)methanesulfonamide] gave an IC50 greater than 0.1 µM.
Work on CN1C(=O)C2(CCC2)c2c1cnc1ccc(-c3cnc(N4CC5CC(C4)N5C(=O)OC(C)(C)C)c(NS(C)(=O)=O)c3)cc21 [Example 359, tert-Butyl 3-(5-(3′-methyl-2′-oxo-2′,3′-dihydrospiro [cyclobutane-1,1′-pyrrolo[2,3-c]quinolin]-8′-yl)-3-(methylsulfonamido)pyridin-2-yl)-3,6-diazabicydo[3.1.1] heptane-6-carboxylate] yielded an IC50 greater than 0.1 µM.
In the case of CN1C(=O)C2(CCC2)c2c1cnc1ccc(-c3cnc(N4CC5CC(C4)N5)c(NS(C)(=O)=O)c3)cc21 [Example 360, N-(2-(3,6-Diazabicyclo[3.1.1]heptan-3-yl)-5-(3′-methyl-2′-oxo-2′,3′-dihydrospiro[cyclobutane-1,1′-pyrrolo[2,3-c]quinolin]-8′-yl)pyridin-3-yl) methanesulfonamide formate], the IC50 is reported as greater than 0.1 µM.
CN1C(=O)C2(CCC2)c2c1cnc1ccc(-c3cnc(N4CC5CC(C4)N5C)c(NS(C)(=O)=O)c3)cc21 [Example 361, N-(5-(3′-Methyl-2′-oxo-2′,3′-dihydrospiro[cyclobutane-1,1′-pyrrolo[2,3-c]quinolin]-8′-yl)-2-(6-methyl-3,6-diazabicyclo[3.1.1]heptan-3-yl)pyridin-3-yl)methanesulfonamide formate] was tested, and the IC50 was greater than 0.1 µM.
CN(C)CCCN(C)c1ncc(-c2ccc3ncc4c(c3c2)C2(CCC2)C(=O)N4C)cc1NS(C)(=O)=O [Example 362, N-(2-((3-(Dimethylamino)propyl)(methyl)amino)-5-(3′-methyl-2′-oxo-2′,3′-dihydrospiro[cyclobutane-1,1′-pyrrolo[2,3-c]quinolin]-8′-yl)pyridin-3-yl)methanesulfonamide hydrochloride] showed an IC50 of 0.001 to 0.1 µM.
CN(C)CCN(C)c1ncc(-c2cc3c4c(cnc3cc2F)N(C)C(=O)C42CCC2)cc1NS(C)(=O)=O [Example 363, N-(2-((2-(Dimethylamino)ethyl)(methyl)amino)-5-(7′-fluoro-3′-methyl-2′-oxo-2′,3′-dihydrospiro[cyclobutane-1,1′-pyrrolo[2,3-c]quinolin]-8′-yl)pyridin-3-yl)methanesulfonamide hydrochloride] gave an IC50 greater than 0.1 µM.
With CN(C)c1ncc(-c2cc3c4c(cnc3cc2F)N(C)C(=O)C42CCC2)cn1 [Example 364, 8′-(2-(Dimethylamino)pyrimidin-5-yl)-7′-fluoro-3′-methylspiro[cyclobutane-1,1′-pyrrolo[2,3-c]quinolin]-2′(3′-H)-one] the IC50 was greater than 0.1 µM.
CC(C)NCCOc1ncc(-c2cc3c4c(cnc3cc2F)N(C)C(=O)C42CCC2)cc1NS(=O)(=O)C(F)F [Example 368, 1,1-Difluoro-N-(5-(7′-fluoro-3′-methyl-2′-oxo-2′,3′-dihydrospiro[cyclobutane-1,1′-pyrrolo[2,3-c]quinolin]-8′-yl)-2-(2-(isopropylamino)ethoxy)pyridin-3-yl)methanesulfonamide] was tested, and the IC50 was greater than 0.1 µM.
In the case of CC(C)NCCOc1ncc(-c2cc3c4c(cnc3cc2F)N(C)C(=O)C42CCC2)cc1NS(=O)(=O)N1CC(C#N)C1 [Example 372, 3-Cyano-N-(5-(7′-fluoro-3′-methyl-2′-oxo-2′,3′-dihydrospiro[cyclobutane-1,1′-pyrrolo[2,3-c]quinolin]-8′-yl)-2-(2-(isopropylamino)ethoxy)pyridin-3-yl)azetidine-1-sulfonamide], the IC50 is reported as greater than 0.1 µM.
CC(C)NCCOc1ncc(-c2cc3c4c(cnc3cc2F)N(C)C(=O)C42CCC2)cc1NS(=O)(=O)CC#N [Example 374, 1-Cyano-N′-(5-(7′-fluoro-3′-methyl-2′-oxo-2′,3′-dihydrospiro[cyclobutane-1,1′-pyrrolo[2,3-c]quinolin]-8′-yl)-2-(2-(isopropylamino)ethoxy)pyridin-3-yl) methanesulfonamide hydrochloride] was tested, and the IC50 was 0.001 to 0.1 µM.
Work on CN1C(=O)C2(CCC2)c2c1cnc1cc(F)c(-c3cnc(OCCNC4CC4)c(NS(C)(=O)=O)c3)cc21 [Example 376, N-(2-(2-(Cyclopropylamino)ethoxy)-5-(7′-fluoro-3′-methyl-2′-oxo-2′,3′-dihydrospiro[cyclobutane-1,1′-pyrrolo[2,3-c]quinolin]-8′-yl)pyridin-3-yl)methanesulfonamide hydrochloride] yielded an IC50 of 0.001 to 0.1 µM.
Molecule CN1C(=O)C2(CCC2)c2c1cnc1cc(F)c(-c3cnc(OCCNC4CCC4)c(NS(C)(=O)=O)c3)cc21 [Example 377, N-(2-(2-(Cyclobutylamino)ethoxy)-5-(7′-fluoro-3′-methyl-2′-oxo-2′,3′-dihydrospiro[cyclobutane-1,1′-pyrrolo[2,3-c]quinolin]-8′-yl)pyridin-3-yl)methanesulfonamide] has an IC50 greater than 0.1 µM.
In the case of CN1C(=O)C2(CCC2)c2c1cnc1cc(F)c(-c3cnc(OCCNCC(F)(F)F)c(NS(C)(=O)=O)c3)cc21 [Example 378, N-(5-(7′-Fluoro-3′-methyl-2′-oxo-2′,3′-dihydrospiro [cyclobutane-1,1′-pyrrolo[2.3-c]quinolin]-8′-yl)-2-(2-((2,2,2-trifluoroethyl)amino)ethoxy)pyridin-3-yl) methanesulfonamide hydrochloride], the IC50 is reported as greater than 0.1 µM.
CN1C(=O)C2(CCC2)c2c1cnc1cc(F)c(-c3cnc(OCCNCC(F)F)c(NS(C)(=O)=O)c3)cc21 [Example 379, N-(2-(2-((2,2-Difluoroethyl)amino)ethoxy)-5-(7fluoro-3′-methyl-2′-oxo-2′,3′-dihydrospiro[cyclobutane-1,1′-pyrrole[2,3-c]quinolin]-8′-yl)pyridin-3-yl) methanesulfonamide] was tested, and the IC50 was greater than 0.1 µM.
In the case of CN1C(=O)C2(CCC2)c2c1cnc1cc(F)c(-c3cnc(OCCNCCF)c(NS(C)(=O)=O)c3)cc21 [Example 380, N-(5-(7′-Fluoro-3′-methyl-2′-oxo-2′,3′-dihydrospiro [cyclobutane-1,1′-pyrrolo[2.3-c]quinolin]-8′-yl)-2-(2-((2-fluoroethyl)amino)ethoxy)pyridin-3-yl) methanesulfonamide hydrochloride], the IC50 is reported as 0.001 to 0.1 µM.
With CC(C)NCCOc1ncc(-c2cc3c(cc2F)ncc2c3[C@]3(C[C@H](O)C3)C(=O)N2C)cc1NS(C)(=O)=O [Example 381, cis-N-(5-(7′-Fluoro-3-hydroxy-3′-methyl-2′-oxo-2′,3′-dihydrospiro[cyclobutane-1,1′-pyrrolo[2,3-c]quinolin]-8′-yl)-2-(2-(isopropylamino)ethoxy)pyridin-3-yl)methanesulfonamide hydrochloride] the IC50 was 0.001 to 0.1 µM.
